From patent US9499711B2, “Treatment liquid and recording method” (Seiko Epson Corporation, priority 2014, dated 2016)

Experiment: physchem
Settings: not given

| SMILES | logP |
| --- | --- |
| CCCCCO [1-pentanol] | 1.4 |

Same assay, conditions: log P value

| SMILES | logP |
| --- | --- |
| CC(C)(O)CCO [3-methyl-1,3-butanediol] | 0.16 |
| CCCOC(C)COC(C)CO (centres unmarked) [Dipropylene glycol monopropyl ether] | 0.87 |
| CCOCCOCCOCC [diethylene glycol diethyl ether] | 0.39 |

More lines, now with the values ahead:

| logP | SMILES |
| --- | --- |
| 0.56 | CCCCOCCOCCO [diethylene glycol monobutyl ether] |
| 1.7 | CCCCCCOCCOCCO [diethylene glycol monohexyl ether] |
| 1.7 | CCCCCCOCCO [ethylene glycol monohexyl ether] |
| 1.15 | CCCCOCC(C)O (centres unmarked) [propylene glycol monobutyl ether] |
| 0.3 | CCOCC(C)O (centres unmarked) [propylene glycol monoethyl ether] |
| 0.62 | CCCOCC(C)O (centres unmarked) [propylene glycol monopropyl ether] |
| 1.34 | CCCCOC(C)COC(C)COC(C)CO (centres unmarked) [tripropylene glycol monobutyl ether] |

Same assay, conditions: logP value of organic compound

| logP | SMILES |
| --- | --- |
| 1.6 | CCCC(O)C(CC)CO (centres unmarked) [2-Ethyl-1,3-hexane diol] |
| 0.6 | CCCOC(C)COC(C)CO (centres unmarked) [Dipropylene glycol monopropyl ether] |
| -2.75 | CCOCCOCCOCCO [Triethylene glycol monoethyl ether] |
